Consider nine compounds from ChEMBL document CHEMBL5465560, “Selectivity Literature for EUbOPEN Chemogenomic Library” (2024).

Test [1] has as its target T1, Serine/threonine-protein kinase 17B (Homo sapiens) (UniProt O94768).
T1 sequence (whole entry): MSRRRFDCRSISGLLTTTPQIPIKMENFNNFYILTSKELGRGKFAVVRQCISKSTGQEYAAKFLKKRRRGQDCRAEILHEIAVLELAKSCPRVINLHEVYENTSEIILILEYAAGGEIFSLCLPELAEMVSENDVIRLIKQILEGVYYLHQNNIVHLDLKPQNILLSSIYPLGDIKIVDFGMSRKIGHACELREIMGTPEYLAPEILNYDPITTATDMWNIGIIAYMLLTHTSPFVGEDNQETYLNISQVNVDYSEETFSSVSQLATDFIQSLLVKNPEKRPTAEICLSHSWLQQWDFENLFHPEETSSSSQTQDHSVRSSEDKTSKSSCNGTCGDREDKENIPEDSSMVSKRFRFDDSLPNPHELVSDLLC
The conditions noted are these: at 10 µM.

The target in test [2] is T2, Ephrin type-A receptor 3 (Homo sapiens) (UniProt P29320).
T2 sequence (whole entry): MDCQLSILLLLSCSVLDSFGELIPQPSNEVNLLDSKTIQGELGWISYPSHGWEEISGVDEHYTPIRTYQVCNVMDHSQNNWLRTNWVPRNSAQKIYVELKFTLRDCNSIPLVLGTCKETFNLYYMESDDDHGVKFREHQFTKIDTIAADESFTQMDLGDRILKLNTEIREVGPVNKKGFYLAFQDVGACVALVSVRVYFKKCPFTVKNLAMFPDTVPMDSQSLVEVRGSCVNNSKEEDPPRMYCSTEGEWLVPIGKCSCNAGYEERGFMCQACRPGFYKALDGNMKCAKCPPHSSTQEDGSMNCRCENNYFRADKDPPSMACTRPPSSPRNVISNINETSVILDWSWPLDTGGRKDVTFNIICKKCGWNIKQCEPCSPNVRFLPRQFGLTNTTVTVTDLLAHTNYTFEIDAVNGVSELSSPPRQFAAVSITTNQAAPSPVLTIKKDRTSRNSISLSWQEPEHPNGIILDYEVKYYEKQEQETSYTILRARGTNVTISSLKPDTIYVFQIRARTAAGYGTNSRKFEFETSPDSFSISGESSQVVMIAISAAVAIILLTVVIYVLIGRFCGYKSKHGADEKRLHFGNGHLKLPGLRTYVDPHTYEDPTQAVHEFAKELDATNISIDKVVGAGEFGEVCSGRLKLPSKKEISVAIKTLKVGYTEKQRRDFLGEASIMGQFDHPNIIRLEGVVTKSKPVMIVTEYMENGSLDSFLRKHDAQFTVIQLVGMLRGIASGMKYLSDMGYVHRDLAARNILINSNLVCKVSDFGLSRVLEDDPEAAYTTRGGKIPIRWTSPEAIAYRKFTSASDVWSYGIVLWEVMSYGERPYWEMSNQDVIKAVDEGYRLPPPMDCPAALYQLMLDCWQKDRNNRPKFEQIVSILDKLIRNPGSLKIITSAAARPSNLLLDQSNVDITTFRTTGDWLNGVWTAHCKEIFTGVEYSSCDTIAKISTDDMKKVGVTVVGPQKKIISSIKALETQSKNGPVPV
Nature of the test: Selectivity interaction (KinomeScan (DiscoverX)) EUB0001049a EPHA3. The conditions noted are these: at 1 µM.

The target of test [3] is Protein kinase C theta type (Homo sapiens, UniProt Q04759). Nature of the test: Selectivity interaction (KinomeScan (DiscoverX)) EUB0000695a PRKCQ. The conditions noted are these: at 100 nM.
Sequence of Protein kinase C theta type (Q04759 whole entry, looked up): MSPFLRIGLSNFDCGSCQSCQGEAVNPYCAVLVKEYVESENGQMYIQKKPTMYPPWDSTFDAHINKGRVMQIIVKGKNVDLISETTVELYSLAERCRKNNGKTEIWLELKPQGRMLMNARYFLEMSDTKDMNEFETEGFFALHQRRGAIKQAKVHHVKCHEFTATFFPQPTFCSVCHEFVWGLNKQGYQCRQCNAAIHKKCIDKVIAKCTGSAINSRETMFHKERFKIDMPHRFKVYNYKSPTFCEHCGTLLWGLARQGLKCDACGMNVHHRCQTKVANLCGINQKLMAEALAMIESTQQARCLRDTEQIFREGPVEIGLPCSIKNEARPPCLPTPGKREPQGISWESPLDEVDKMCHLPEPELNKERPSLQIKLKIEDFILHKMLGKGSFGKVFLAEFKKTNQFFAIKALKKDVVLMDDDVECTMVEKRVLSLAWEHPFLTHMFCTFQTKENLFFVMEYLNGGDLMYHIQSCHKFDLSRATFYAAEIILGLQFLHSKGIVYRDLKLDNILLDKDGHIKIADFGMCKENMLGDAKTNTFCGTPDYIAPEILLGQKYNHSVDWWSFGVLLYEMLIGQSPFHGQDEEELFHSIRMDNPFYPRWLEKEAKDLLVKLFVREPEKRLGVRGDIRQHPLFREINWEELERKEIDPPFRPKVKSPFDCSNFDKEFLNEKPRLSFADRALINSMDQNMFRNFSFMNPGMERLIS
For test [4], the target named is 5'-AMP-activated protein kinase catalytic subunit alpha-1 (Homo sapiens, UniProt Q13131). The experiment in a line: Selectivity interaction (Kinase screening (Upstate/Millipore)) EUB0000604a PRKAA1.
The test system of test [5] is Mast/stem cell growth factor receptor Kit (Homo sapiens), P10721 [D816H]. The experiment in a line: (§1) Selectivity interaction (KinomeScan (DiscoverX)) EUB0000666a KIT. The conditions noted are these: at 10 µM.
The test system of test [6] is Mast/stem cell growth factor receptor Kit (Homo sapiens), P10721 [D816V]. Described as §1. The conditions noted are these: at 10 µM.
For test [7], the system named is Mast/stem cell growth factor receptor Kit (Homo sapiens), P10721 [L576P]. Described as §1. The conditions noted are these: at 10 µM.
For test [8], the system named is Mast/stem cell growth factor receptor Kit (Homo sapiens), P10721 [V559D,T670I]. The description is as §1. The conditions noted are these: at 10 µM.
Test [9] has as its system Mast/stem cell growth factor receptor Kit (Homo sapiens), P10721 [V559D,V654A]. Described as §1. The conditions noted are these: at 10 µM.
Test [10] concerns Mast/stem cell growth factor receptor Kit (Homo sapiens), P10721 [V559D]. Described as §1. The conditions noted are these: at 10 µM.
Test [11] concerns the target Mast/stem cell growth factor receptor Kit (Homo sapiens, UniProt P10721). The test is described as §1. The conditions noted are these: at 10 µM.
Test [12] has as its target Serine/threonine-protein kinase pim-2 (Homo sapiens, UniProt Q9P1W9). The experiment in a line: Selectivity interaction (KinomeScan (DiscoverX)) EUB0000666a PIM2. The conditions noted are these: at 10 µM.
The target in test [13] is Cyclin-dependent kinase 8 (Homo sapiens, UniProt P49336). Nature of the test: Selectivity interaction (KinomeScan (DiscoverX)) EUB0000607a CDK8. The conditions noted are these: at 10 µM.
Sequence of Cyclin-dependent kinase 8 (P49336 whole entry): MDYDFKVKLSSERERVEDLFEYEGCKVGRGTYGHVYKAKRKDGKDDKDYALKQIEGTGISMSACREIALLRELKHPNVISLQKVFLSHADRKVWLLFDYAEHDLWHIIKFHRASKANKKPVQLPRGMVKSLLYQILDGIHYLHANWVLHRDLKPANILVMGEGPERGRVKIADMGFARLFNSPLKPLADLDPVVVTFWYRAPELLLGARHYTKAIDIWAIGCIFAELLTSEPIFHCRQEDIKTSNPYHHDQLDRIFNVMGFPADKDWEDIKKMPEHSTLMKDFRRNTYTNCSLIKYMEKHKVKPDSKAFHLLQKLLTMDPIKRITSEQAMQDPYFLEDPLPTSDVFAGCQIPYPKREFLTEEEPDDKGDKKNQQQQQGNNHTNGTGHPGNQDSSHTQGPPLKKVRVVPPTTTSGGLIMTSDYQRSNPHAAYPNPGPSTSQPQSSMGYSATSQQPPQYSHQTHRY
Test [14] concerns the target Serine/threonine-protein kinase SMG1 (Homo sapiens) (UniProt Q96Q15). Nature of the test: Selectivity interaction (ActivX KiNativ screen (kinase selectivity in THP-1 cell lysates)) EUB0000639a SMG1. The conditions noted are these: lysate. Format: subcellular.
The target of test [15] is T3, Myotonin-protein kinase (Homo sapiens) (UniProt Q09013).
T3 sequence (whole entry): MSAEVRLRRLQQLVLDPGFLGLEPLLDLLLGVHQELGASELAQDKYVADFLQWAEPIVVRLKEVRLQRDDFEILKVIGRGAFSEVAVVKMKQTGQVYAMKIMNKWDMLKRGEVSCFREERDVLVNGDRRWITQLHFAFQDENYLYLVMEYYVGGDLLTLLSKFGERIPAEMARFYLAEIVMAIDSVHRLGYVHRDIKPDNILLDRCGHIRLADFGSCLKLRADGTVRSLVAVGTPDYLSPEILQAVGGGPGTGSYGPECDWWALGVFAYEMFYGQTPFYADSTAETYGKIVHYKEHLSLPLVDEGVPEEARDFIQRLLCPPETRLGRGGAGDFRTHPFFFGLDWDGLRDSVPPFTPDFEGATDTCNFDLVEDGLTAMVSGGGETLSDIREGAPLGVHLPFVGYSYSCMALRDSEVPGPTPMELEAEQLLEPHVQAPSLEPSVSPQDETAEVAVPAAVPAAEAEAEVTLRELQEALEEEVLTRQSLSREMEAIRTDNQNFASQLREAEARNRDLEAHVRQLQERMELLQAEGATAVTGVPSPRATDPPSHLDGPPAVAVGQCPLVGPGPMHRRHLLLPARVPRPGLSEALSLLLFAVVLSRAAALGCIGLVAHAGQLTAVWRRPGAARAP
Nature of the test: Selectivity interaction (KinomeScan (DiscoverX)) EUB0000229b DMPK. The conditions noted are these: at 10 µM.

Test [16] concerns the target Mitogen-activated protein kinase kinase kinase 1 (Homo sapiens, UniProt Q13233). Nature of the test: Selectivity interaction (ActivX KiNativ screen (ex vivo kinase selectivity in human PBMCs)) EUB0001619a MAP3K1. The format is cell-based. The conditions noted are these: PBMC, at 1 µM.

Sequence of Serine/threonine-protein kinase SMG1 (Homo sapiens) (Q96Q15 whole entry): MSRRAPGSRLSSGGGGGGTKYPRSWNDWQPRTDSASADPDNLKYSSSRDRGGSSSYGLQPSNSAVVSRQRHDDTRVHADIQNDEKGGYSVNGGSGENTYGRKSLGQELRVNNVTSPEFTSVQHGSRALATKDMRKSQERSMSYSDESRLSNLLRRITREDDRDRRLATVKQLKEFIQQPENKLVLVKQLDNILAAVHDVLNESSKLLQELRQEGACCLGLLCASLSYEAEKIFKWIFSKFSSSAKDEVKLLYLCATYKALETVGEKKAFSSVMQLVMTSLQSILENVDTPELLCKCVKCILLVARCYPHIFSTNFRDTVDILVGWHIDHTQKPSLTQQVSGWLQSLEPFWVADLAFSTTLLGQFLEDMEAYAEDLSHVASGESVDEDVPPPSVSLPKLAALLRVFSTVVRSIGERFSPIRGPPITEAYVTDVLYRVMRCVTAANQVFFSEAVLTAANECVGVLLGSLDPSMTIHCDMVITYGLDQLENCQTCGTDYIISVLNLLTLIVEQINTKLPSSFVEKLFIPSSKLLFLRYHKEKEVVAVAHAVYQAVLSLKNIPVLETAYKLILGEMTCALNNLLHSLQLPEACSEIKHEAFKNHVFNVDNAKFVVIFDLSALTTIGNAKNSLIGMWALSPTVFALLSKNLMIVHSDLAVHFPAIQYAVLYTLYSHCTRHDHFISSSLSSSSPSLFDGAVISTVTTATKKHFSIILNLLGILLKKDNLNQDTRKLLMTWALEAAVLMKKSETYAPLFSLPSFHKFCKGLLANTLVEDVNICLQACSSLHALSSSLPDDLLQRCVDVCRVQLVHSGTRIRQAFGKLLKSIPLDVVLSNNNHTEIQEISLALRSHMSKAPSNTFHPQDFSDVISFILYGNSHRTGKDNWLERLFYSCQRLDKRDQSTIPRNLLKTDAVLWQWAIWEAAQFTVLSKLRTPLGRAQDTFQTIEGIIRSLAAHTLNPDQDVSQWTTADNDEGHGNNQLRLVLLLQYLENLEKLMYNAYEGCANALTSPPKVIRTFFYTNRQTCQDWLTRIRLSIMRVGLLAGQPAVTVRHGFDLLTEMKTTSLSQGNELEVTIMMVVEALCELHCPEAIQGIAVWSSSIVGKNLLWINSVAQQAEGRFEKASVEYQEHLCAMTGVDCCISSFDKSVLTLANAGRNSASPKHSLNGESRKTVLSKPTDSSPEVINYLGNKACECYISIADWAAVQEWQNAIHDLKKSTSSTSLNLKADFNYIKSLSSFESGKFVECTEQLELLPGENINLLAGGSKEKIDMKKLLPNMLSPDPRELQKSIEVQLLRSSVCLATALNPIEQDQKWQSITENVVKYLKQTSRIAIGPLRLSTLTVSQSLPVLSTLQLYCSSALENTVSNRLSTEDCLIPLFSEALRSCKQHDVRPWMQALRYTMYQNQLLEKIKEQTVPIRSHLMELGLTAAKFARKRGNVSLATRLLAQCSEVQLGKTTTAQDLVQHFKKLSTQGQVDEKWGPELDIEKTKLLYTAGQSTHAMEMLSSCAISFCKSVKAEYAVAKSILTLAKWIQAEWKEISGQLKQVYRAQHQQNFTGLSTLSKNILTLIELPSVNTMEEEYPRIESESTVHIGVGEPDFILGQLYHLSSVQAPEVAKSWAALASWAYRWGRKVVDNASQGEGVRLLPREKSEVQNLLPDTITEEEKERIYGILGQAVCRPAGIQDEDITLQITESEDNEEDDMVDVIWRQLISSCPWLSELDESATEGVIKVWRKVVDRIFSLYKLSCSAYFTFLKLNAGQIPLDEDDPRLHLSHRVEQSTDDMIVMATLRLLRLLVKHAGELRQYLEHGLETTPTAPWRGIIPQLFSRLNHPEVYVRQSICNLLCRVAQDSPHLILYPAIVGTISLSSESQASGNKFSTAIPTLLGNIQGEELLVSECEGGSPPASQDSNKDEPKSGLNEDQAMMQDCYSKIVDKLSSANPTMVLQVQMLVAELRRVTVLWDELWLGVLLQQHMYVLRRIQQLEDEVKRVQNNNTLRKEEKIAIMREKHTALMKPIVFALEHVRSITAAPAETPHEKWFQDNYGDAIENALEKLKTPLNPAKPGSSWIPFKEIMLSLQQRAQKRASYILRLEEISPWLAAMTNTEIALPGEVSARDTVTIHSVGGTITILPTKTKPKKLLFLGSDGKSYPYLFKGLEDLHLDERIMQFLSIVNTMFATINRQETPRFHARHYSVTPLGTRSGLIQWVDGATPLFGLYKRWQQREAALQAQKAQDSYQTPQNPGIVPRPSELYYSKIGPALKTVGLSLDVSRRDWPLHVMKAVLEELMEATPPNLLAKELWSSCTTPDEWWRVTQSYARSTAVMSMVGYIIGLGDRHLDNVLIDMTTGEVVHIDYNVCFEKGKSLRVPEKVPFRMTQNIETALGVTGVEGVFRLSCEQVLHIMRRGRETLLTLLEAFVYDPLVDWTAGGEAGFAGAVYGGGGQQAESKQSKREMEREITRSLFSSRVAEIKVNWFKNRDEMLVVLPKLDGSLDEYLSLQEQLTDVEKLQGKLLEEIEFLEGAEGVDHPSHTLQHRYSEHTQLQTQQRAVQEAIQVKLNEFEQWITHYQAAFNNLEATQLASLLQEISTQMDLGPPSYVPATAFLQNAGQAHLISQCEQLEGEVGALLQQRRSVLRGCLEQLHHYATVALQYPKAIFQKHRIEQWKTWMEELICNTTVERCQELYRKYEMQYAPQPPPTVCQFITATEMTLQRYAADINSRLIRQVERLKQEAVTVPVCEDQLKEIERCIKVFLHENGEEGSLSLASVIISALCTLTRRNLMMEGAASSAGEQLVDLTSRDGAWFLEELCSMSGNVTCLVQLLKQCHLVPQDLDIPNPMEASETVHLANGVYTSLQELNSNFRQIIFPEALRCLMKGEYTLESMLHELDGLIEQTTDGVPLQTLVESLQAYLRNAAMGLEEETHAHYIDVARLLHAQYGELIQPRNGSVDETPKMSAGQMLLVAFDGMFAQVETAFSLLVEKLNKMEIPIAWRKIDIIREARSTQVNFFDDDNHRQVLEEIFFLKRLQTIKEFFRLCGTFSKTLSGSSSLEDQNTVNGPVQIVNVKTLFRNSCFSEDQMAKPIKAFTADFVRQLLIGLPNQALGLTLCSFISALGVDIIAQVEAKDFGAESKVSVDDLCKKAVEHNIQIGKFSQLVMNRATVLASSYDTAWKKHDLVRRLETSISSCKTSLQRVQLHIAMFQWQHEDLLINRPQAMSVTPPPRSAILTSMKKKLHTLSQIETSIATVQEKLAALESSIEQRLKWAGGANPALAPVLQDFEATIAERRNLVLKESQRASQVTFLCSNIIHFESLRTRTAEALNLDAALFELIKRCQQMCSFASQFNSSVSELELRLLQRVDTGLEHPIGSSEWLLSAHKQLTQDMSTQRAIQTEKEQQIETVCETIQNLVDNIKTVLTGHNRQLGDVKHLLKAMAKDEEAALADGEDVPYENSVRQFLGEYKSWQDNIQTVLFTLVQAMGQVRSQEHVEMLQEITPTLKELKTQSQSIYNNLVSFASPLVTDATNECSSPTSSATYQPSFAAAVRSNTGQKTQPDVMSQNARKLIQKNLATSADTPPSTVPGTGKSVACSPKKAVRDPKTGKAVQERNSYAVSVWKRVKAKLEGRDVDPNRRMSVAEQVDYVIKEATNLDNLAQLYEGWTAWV
Sequence of Serine/threonine-protein kinase pim-2 (Q9P1W9 whole entry, looked up): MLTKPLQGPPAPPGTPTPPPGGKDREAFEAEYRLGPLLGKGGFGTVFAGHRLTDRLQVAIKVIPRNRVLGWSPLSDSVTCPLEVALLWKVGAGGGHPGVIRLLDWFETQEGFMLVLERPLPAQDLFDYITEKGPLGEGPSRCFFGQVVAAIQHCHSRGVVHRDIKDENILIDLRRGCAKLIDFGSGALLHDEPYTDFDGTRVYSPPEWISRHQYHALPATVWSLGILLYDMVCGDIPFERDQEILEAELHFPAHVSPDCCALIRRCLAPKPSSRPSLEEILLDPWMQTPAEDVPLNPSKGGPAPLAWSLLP

Consider `Cc1cc([C@@H](C)Nc2ccccc2C(=O)O)c2nc(N3CCOCC3)cc(=O)n2c1` [AZD-6482], for which the % of control in [1] is 100%.
In turn, `COc1cc(Nc2nc(C)cc(-c3cnn4nc(OC)ccc34)n2)cc(C(F)(F)F)c1` came in with a % of control in test [2] of 80%.
`Cc1cc(F)c(C(=O)Nc2cccc(-c3nncn3C(C)C)n2)cc1-n1cnc(C2CC2)c1` returned a % of control in test [3] of 75%.
`Cc1cnc(Nc2ccc(F)cc2Cl)nc1-c1c[nH]c(C(=O)N[C@H](CO)c2cccc(Cl)c2)c1`: the % of inhibition in test [4] was determined as 5%.
Take `O=C(NOC[C@H](O)CO)c1ccc(F)c(F)c1Nc1ccc(I)cc1F`: the % of control is 91% in [5]; 87% in [6]; 75% in [7]; 90% in [8]; 100% in test [9]; 74% in [10]. Also, the % of control was 92% in test [11] and 75% in test [12].
The compound `CNC(=O)Nc1ccc(-c2nc(N3CC4CCC(C3)O4)c3cnn(C4CCC5(CC4)OCCO5)c3n2)cc1` came in with a % of control in test [13] of 100%.
On to `CC[C@@H]1[C@H](F)C(=O)N[C@@H]1COc1nccc2cc(C(N)=O)c(OC)cc12` [ZIMLOVISERTIB], for which the % of inhibition in [14] (at 0.01 µM) is 7.7%; in test [14] (at 0.04 µM), 1.9%; in test [14] (at 0.2 µM), 6.9%; in [14] (at 1 µM), 6.1%; in test [14] (at 5 µM), -13.6%.
The compound `COc1cc(N(C)c2ccnc3ccc(C(F)(F)F)cc23)cc(OC)c1OC` registered a % binding in [15] of 87%.
Consider `N#Cc1cccc(-c2c[nH]c3ncnc(N4CCOCC4)c23)c1`, for which, in [16], the % of inhibition came to 45%.
